From PMC10559933 (The Prostate, 2023)
Like-named read-outs stand apart in the source and are kept apart here.

Key:
[1] = test system: LvCaP-3 human prostate cancer PDXs; assay: In vivo growth of LvCaP-3 PDX in castrate mice; set-up: species or system human xenograft in mice; conditions: oral 10 mg/kg/d, alone or in combination with B(a)P
[2] = test system: metastatic castration-resistant prostate cancer (mCRPC); conditions: cited from earlier work
[3] = test system: prostate cancer xenografts; conditions: oral 10 mg/kg/d, cited from earlier work
[4] = cited from earlier work
fl-HDAC4 = fl-HDAC4 (Homo sapiens, UniProt P56524); assay: HDAC4 enzymatic assay with Lys; type: biochemical; conditions: Lys(TFA)-AMC substrate
fl-HDAC4, sequence (P56524 whole entry): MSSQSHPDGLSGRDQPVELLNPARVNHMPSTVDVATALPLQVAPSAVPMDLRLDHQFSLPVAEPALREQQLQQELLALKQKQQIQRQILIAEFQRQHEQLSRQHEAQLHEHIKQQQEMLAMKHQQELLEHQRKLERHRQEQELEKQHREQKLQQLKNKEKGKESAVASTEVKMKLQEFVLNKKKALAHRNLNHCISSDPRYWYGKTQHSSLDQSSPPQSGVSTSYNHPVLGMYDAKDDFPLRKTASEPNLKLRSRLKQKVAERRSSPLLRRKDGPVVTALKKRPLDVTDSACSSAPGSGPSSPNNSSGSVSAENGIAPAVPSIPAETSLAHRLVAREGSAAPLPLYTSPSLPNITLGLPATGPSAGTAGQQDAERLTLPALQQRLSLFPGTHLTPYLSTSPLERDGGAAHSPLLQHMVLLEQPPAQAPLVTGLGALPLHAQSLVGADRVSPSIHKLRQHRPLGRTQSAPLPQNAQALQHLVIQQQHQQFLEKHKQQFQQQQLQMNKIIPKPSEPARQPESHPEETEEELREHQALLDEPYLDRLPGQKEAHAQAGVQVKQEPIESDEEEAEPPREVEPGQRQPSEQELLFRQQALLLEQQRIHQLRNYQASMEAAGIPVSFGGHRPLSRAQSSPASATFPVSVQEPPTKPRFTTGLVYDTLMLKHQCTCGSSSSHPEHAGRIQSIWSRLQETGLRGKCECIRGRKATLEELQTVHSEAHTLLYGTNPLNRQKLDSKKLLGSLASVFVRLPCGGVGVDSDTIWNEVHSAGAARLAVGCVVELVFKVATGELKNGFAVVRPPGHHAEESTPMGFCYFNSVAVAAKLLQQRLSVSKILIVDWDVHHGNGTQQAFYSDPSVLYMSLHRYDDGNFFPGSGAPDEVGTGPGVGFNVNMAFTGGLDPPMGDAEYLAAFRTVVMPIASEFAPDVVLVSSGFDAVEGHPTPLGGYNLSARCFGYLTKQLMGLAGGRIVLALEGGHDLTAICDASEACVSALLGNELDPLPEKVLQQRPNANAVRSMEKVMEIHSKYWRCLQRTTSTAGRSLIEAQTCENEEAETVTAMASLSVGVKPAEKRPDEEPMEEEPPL

thymus = assay: AHR agonist induced thymus regression in FVB male mice; type: in vivo; conditions: oral 10 mg/kg/d for 14 days; vehicle 72 +/− 3 (>70)
[5] = cited from earlier work; remark: listed apart in the source
[6] = test system: human umbilical vein endothelial cells (HUVECs); assay: Three dimensional; type: cell-based; conditions: CM-supplemented 3D cultures, 10 μM
[7] = test system: CWR22-RH human prostate cancer PDXs; assay: In vivo growth of CWR22-RH PDX in castrate NSG mice; set-up: species or system human xenograft in NSG mice; conditions: castrate NSG mice, 3-week treatment
CWR22-RH PDXs = assay: RNA sequencing of in vivo growing CWR22-RH PDX; set-up: species or system human xenograft in mice; conditions: oral 10 mg/kg/d vs vehicle, castrate hosts
[8] = target: T1, Human Aryl Hydrocarbon Receptor (AHR) (Homo sapiens, UniProt P35869); assay: Cell-based luciferase reporter gene assay driven by AHR-responsive promoter
T1 sequence (P35869 11-848): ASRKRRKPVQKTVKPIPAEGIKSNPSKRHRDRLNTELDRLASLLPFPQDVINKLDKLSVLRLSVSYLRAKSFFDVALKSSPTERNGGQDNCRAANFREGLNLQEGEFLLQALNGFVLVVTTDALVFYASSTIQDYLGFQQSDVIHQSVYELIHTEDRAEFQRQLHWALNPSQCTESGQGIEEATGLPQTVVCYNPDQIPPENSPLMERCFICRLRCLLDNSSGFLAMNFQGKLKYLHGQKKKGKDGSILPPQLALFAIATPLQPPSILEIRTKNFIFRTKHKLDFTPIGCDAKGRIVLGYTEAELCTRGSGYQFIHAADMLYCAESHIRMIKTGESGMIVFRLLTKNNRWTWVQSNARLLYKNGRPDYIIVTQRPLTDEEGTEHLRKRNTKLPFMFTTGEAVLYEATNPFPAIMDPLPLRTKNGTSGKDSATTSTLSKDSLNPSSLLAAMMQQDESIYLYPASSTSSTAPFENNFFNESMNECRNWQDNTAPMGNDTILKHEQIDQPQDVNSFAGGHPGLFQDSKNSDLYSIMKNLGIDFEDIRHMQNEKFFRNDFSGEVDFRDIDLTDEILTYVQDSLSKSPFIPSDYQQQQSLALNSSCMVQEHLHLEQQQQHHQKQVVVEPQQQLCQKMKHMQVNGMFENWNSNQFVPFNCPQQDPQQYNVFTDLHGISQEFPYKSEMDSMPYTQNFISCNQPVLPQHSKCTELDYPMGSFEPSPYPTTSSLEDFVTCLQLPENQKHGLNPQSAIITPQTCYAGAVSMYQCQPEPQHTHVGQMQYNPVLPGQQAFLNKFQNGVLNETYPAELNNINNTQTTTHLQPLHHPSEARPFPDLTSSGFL

[9] = test system: prostate cancer xenografts; conditions: cited from earlier work
fl-NCoR1 protein = fl-NCoR1 protein (Homo sapiens, UniProt O75376); assay: SPR: TasQ in solution binding to immobilized fl-NCoR1
fl-NCoR1 protein, sequence (O75376 whole entry): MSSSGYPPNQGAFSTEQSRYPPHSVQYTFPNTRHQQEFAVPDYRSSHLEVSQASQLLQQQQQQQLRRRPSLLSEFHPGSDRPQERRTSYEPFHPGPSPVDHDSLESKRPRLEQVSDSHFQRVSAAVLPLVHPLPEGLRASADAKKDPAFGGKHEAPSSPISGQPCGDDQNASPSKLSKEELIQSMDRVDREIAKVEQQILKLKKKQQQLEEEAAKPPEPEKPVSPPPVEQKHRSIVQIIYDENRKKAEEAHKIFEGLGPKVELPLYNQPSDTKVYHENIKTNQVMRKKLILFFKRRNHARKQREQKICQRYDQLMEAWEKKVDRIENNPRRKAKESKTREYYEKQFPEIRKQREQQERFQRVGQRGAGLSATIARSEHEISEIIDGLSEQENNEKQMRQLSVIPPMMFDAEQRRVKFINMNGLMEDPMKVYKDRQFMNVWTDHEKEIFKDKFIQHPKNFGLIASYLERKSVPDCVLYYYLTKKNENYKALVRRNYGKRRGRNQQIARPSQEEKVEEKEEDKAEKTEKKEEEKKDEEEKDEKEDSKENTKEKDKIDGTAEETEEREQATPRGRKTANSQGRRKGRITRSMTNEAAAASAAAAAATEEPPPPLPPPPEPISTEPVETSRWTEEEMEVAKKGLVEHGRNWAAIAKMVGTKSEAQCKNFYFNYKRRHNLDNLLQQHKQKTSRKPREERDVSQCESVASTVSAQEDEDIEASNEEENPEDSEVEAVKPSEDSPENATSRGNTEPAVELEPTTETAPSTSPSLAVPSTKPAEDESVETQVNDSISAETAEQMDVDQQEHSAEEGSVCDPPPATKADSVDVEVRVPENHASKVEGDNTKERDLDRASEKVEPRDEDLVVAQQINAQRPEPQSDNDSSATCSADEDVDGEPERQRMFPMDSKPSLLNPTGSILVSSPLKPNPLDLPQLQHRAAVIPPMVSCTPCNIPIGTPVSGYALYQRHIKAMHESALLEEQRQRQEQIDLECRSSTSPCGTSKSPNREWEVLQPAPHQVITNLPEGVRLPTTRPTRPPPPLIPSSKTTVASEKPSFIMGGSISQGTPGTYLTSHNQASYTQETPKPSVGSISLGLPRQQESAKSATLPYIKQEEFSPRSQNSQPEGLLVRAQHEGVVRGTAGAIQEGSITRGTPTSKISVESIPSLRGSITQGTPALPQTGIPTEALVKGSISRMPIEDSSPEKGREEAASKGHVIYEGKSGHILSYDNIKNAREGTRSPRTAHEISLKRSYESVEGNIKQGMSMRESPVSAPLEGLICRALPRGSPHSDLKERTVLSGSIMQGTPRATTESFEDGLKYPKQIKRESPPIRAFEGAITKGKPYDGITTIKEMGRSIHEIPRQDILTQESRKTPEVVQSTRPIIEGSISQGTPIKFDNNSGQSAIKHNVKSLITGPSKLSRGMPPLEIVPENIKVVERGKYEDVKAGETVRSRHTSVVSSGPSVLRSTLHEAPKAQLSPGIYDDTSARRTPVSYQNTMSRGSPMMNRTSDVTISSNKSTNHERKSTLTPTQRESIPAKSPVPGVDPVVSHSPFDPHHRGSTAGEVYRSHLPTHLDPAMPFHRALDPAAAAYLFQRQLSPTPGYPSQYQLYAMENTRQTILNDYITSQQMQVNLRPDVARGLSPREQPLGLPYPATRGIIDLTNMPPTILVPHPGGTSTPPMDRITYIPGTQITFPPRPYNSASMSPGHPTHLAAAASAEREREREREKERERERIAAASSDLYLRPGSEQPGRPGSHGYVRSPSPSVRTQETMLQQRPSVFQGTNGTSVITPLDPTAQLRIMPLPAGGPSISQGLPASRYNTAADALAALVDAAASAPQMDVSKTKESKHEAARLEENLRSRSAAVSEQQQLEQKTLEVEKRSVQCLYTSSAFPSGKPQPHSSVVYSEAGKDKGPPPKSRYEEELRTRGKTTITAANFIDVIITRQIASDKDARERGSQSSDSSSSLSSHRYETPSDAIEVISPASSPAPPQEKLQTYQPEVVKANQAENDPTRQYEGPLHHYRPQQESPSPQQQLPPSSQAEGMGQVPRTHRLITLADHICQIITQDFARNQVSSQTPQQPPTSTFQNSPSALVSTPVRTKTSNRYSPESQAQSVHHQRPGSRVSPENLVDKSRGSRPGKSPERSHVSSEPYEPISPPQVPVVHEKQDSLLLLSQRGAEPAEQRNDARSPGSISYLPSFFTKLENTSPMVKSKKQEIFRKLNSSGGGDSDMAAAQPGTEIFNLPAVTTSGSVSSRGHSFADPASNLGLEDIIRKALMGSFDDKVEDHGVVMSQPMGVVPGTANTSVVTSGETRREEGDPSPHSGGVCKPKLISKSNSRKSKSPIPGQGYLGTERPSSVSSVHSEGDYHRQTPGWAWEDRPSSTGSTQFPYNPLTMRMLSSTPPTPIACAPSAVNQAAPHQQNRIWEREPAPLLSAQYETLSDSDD

HIF-1α protein = conditions: daily oral 10 mg/kg/d; cited from earlier work
CWR-22Rv1 xenografts = type: in vivo, human xenograft in mice; conditions: oral 10 mg/kg/d
LNCaP cells = assay: In vitro growth of LNCaP parental vs HDAC4 KD cells, normoxia vs hypoxia; type: cell-based, human; conditions: TasQ 10 μM
fl-wild-type HDAC4 = fl-wild-type HDAC4 (Homo sapiens, UniProt P56524); assay: SPR competition: TasQ in solution vs immobilized TasQ for fl-wild-type HDAC4; type: binding
fl-wild-type HDAC4, sequence (P56524 whole entry): as the sequence (P56524 whole entry) above

[10] = target: fl-R681A/R798A double mutant HDAC4 protein (Homo sapiens, UniProt P56524, R681A/R798A); assay: SPR competition: TasQ in solution vs immobilized TasQ for mutant HDAC4; type: binding
fl-R681A/R798A double mutant HDAC4 protein, sequence (P56524 whole entry R681A/R798A): as the sequence (P56524 whole entry) above, with R681A, R798A counted along it

liver Cyp1a1 = assay: Liver Cyp1a1 induction in mice; type: in vivo; conditions: oral 10 mg/kg, alone and in combination with B(a)P
[11] = phase 1B, TasQ combined with cabazitaxel, RECIST

COc1cccc2c1c(O)c(C(=O)N(C)c1ccc(C(F)(F)F)cc1)c(=O)n2C [TasQ, 4-hydroxy-5-methoxy-N,1-dimethyl-2-oxo-N-[(4-trifluoromethyl)phenyl]-1,2-dihydroquinoline-3-caboxamide]
inhibition of growth at end of study (fraction) [1]: ~ 2/3
patients with complete or partial response (CR/PR) [2, 11]: 12%
patients with stable disease [2, 11]: 48%
overall survival (OS) ([2]; phase III, 1 mg/day): not significantly enhanced
reduction of risk of radiographic progression or death vs. placebo ([2]; phase III, daily oral): 36%
improvement of median progression-free survival (PFS) ([2]; randomized phase II, mCRPC progressing on ADT): 4.3 months
pO2 in the TME ([3]; lowered from >3 mmHg): 1.4 +/− 1.0 mmHg
enhancement of hypoxia [3]: > 2 fold
plasma concentration maintained ([4]; 0.5 mg/d): 230 ± 30 nM
steady-state plasma level ([4]; 1 mg/day): 0.42 ± 0.05 µM
MTD when combined with cabazitaxel and prednisone ([4]; phase 1B): 0.5 mg/day
maximum tolerated dose (MTD) ([4]; phase I, oral, after dose escalation over 4–6 weeks): 1 mg/day
dose-limiting toxicity ([4]; phase I): sinus tachycardia and asymptomatic elevation in amylase
effect on enzymatic activity (fl-HDAC4): did not inhibit
thymus weight (thymus): 41.6 ± 6 mg
serum nadir ([5]; oral 5 mg/kg/d, at 24 hrs): 1.08 ± 0.21 µM
blood concentration maintained ([5]; oral 10 mg/kg/d): > 1000 nM
sprouting [6]: sprouting prevented
oral daily dose giving maximal significant growth inhibition [7]: ≥ 5 mg/kg/day
AGR2, AHR Target Genes (Fold Increases by TasQ) (CWR22-RH PDXs): 5.5 fold
AHR, AHR Target Genes (Fold Increases by TasQ) (CWR22-RH PDXs): 3.0 fold
ALDOC, HIF-1a Target Genes (Fold Decrease by TasQ) (CWR22-RH PDXs): −1.4 fold
AR, AR Target Genes (Fold Decrease by TasQ) (CWR22-RH PDXs): −2.0 fold
BNIP3, HIF-1a Target Genes (Fold Decrease by TasQ) (CWR22-RH PDXs): −1.9 fold
CDC6, Proliferation Target Genes (Fold Decrease by TasQ) (CWR22-RH PDXs): −1.5 fold
CDT1, Proliferation Target Genes (Fold Decrease by TasQ) (CWR22-RH PDXs): −2.2 fold
CYP1B1, AHR Target Genes (Fold Increases by TasQ) (CWR22-RH PDXs): 10.0 fold
DTYMK, Proliferation Target Genes (Fold Decrease by TasQ) (CWR22-RH PDXs): −1.6 fold
E2F1, Proliferation Target Genes (Fold Decrease by TasQ) (CWR22-RH PDXs): −2.0 fold
GDF15, AHR Target Genes (Fold Increases by TasQ) (CWR22-RH PDXs): 2.3 fold
HILPDA, HIF-1a Target Genes (Fold Decrease by TasQ) (CWR22-RH PDXs): −1.7 fold
IGF1, HIF-1a Target Genes (Fold Decrease by TasQ) (CWR22-RH PDXs): −11.0 fold
IGFBP2, HIF-1a Target Genes (Fold Decrease by TasQ) (CWR22-RH PDXs): −1.8 fold
IGFBP5, HIF-1a Target Genes (Fold Decrease by TasQ) (CWR22-RH PDXs): −18.0 fold
KLKP1, AR Target Genes (Fold Decrease by TasQ) (CWR22-RH PDXs): −2.3 fold
LDHA, HIF-1a Target Genes (Fold Decrease by TasQ) (CWR22-RH PDXs): −1.5 fold
LOX, HIF-1a Target Genes (Fold Decrease by TasQ) (CWR22-RH PDXs): −4.0 fold
MCM2, Proliferation Target Genes (Fold Decrease by TasQ) (CWR22-RH PDXs): −1.9 fold
MCM3, Proliferation Target Genes (Fold Decrease by TasQ) (CWR22-RH PDXs): −1.6 fold
MCM5, Proliferation Target Genes (Fold Decrease by TasQ) (CWR22-RH PDXs): −2.0 fold
MKI67, Proliferation Target Genes (Fold Decrease by TasQ) (CWR22-RH PDXs): −1.7 fold
NKX3.1, AR Target Genes (Fold Decrease by TasQ) (CWR22-RH PDXs): −2.3 fold
NQOI, AHR Target Genes (Fold Increases by TasQ) (CWR22-RH PDXs): 2.9 fold
P4HA1, HIF-1a Target Genes (Fold Decrease by TasQ) (CWR22-RH PDXs): −1.8 fold
PDK1, HIF-1a Target Genes (Fold Decrease by TasQ) (CWR22-RH PDXs): −1.7 fold
PTN, HIF-1a Target Genes (Fold Decrease by TasQ) (CWR22-RH PDXs): −6.1 fold
SLC45A3, AR Target Genes (Fold Decrease by TasQ) (CWR22-RH PDXs): −3.7 fold
TIPARP, AHR Target Genes (Fold Increases by TasQ) (CWR22-RH PDXs): 3.4 fold
TMPRSS2, AR Target Genes (Fold Decrease by TasQ) (CWR22-RH PDXs): −1.9 fold
TNC, HIF-1a Target Genes (Fold Decrease by TasQ) (CWR22-RH PDXs): −2.5 fold
TTR, HIF-1a Target Genes (Fold Decrease by TasQ) (CWR22-RH PDXs): −3.8 fold
VEGFB, HIF-1a Target Genes (Fold Decrease by TasQ) (CWR22-RH PDXs): −1.5 fold
BHLHE41, MEF-2 Target Genes (Fold Decrease by TasQ) (CWR22-RH PDXs; section title: upregulation): 2.9 fold
CA12, MEF-2 Target Genes (Fold Decrease by TasQ) (CWR22-RH PDXs; section title: upregulation): 2.7 fold
CAPN2, MEF-2 Target Genes (Fold Decrease by TasQ) (CWR22-RH PDXs; section title: upregulation): 1.6 fold
CEACAM1, MEF-2 Target Genes (Fold Decrease by TasQ) (CWR22-RH PDXs; section title: upregulation): 1.8 fold
EDN1, MEF-2 Target Genes (Fold Decrease by TasQ) (CWR22-RH PDXs; section title: upregulation): 15.0 fold
NR4A1, MEF-2 Target Genes (Fold Decrease by TasQ) (CWR22-RH PDXs; section title: upregulation): 1.4 fold
NR4A2, MEF-2 Target Genes (Fold Decrease by TasQ) (CWR22-RH PDXs; section title: upregulation): 1.8 fold
S100P, MEF-2 Target Genes (Fold Decrease by TasQ) (CWR22-RH PDXs; section title: upregulation): 5.7 fold
THB5, MEF-2 Target Genes (Fold Decrease by TasQ) (CWR22-RH PDXs; section title: upregulation): 8.0 fold
EC50 [8]: 1000 nM
fold more potent compared to Linomide ([9]; based on serum drug level): ≥ 100 fold
daily oral dosing required in mice [9]: > 5 mg/kg/day
fold increase in anti-tumor efficacy compared to Linomide [9]: > 25 fold
daily oral dosing required for maximal therapeutic activity ([9]; preclinical): ≥ 5 mg/kg
serum concentration to be maintained for maximal therapeutic activity ([9]; preclinical): > 2 µM
binding to immobilized fl-NCoR1 (fl-NCoR1 protein): no detectable binding
lowering of HIF-1α protein in tumors (HIF-1α protein): > 50%
growth inhibition (CWR-22Rv1 xenografts; dominant-positive mutant HIF-1α tumors): < 25%
growth inhibition (CWR-22Rv1 xenografts; wild type cells): > 80%
effect on cells (LNCaP cells): the cells die
EC50 (fl-wild-type HDAC4): 1000 nM
displacement of mutant HDAC4 from immobilized TasQ [10]: not competitively displaced
induction of liver Cyp1a1 (liver Cyp1a1): > 50 fold
